Experimental findings from patent US20260258003A1, “SLACK-ACTIVATING COMPOUNDS AND THEIR MEDICAL USE” (Johann Wolfgang Goethe-Universität Frankfurt am Main, priority 2023, published 2026) are described below.

Structures are written as SMILES.

Experiment [1] has as its system histamine-induced scratching of mice. Kind of experiment: Histamine-induced acute itch model. The class given is in vivo. As to conditions: i.p. As to the method: Further studies were conducted to assess the in vivo efficacy of Compound 6 and Compound 10 in mice. In detail, experiments were performed in 8 to 16 weeks old C57BL/6N mice (Charles River, Sulzfeld, Germany) and animals with a genetic deletion of Slack (Slack^−/− mice^27) of either sex. Animals were housed on a 12 h light/dark cycle with access to food and water ad libitum. All experiments adhered to the guidelines of the International Association for the Study of Pain and to the ARRIVE (Animal Research: Reporting on In Vivo Experiments) guidelines, and were approved by and conducted in accordance with the regulations of the local Animal Welfare authorities (Regierungspräsidium Darmstadt, Germany). All behavioral studies were conducted during the light cycle of the day at room temperature (20-24° C.) by an observer blinded for the treatment of the animals and/or their genotype.
Acute itch behavior of the mice was monitored using a histamine-based, chloroquine-based and SLIGRL-based acute itch behavior model. In these models, three to four days before the experiment day, the fur on the dorsolateral aspect of the neck was shaved under brief isoflurane anesthesia. On the testing day, mice were habituated for 30 min in separate plexiglass cylinders (30 cm diameter). […] Numbers of scratching bouts directed to the nape of the neck were assessed over 30 min by videotaping.

The test system of another experiment is IB4-binding DRG neurons. Kind of experiment: Whole-cell current-clamp recordings on IB4-binding DRG neurons. As to conditions: 50 μM. The class given is cell-based, mice. As to the method: A DRG neuron primary cell culture was prepared and stimulated with an inflammatory soup overnight to induce hyperexcitability. In brief, naïve C57BL/6N mice (age 4-8 weeks) were killed by CO2 inhalation and lumbar (L1-L5) DRGs were transferred to hanks' balanced salt solution (Gibco, Thermo Fisher Scientific). After incubation with 500 U/mL collagenase IV and 2.5 U/ml dispase II (both from Sigma Aldrich) for 60 min, including carefully shaking every 20 min, DRGs were washed and gently triturated twice with a fire-polished Pasteur pipette in neurobasal medium (Gibco, Thermo Fisher Scientific) including 10% FBS and 0.5 mM GlutMax (Gibco, Thermo Fisher Scientific). Dissociated DRGs were seeded onto poly-D-lysine-coated (100 μg/mL) coverslips and cultured in neurobasal medium supplemented with 2% B27 (Gibco, Thermo Fisher Scientific), 1% penicillin/streptomycin and 0.5 mM GlutMax in 5% CO2 at 37° C.
In order to simulate a pathological state, DRG neuronal cultures were incubated with an inflammatory soup (histamine: 10 μM, PGE2: 10 μM, serotonin: 10 μM, bradykinin: 10 μM)^33 overnight and performed recordings on cells that bind isolectin B4, a marker of nonpeptidergic C-fiber neurons including the itch-sensitive neuronal populations (NP1-NP3)^4 in mice. Before recording, DRG neurons were preincubated with 10 μg/mL FITC-conjugated IB4 (Sigma-Aldrich) for 5-10 min to select for Slack-expressing neurons.
Whole-cell current clamp recordings were obtained using an EPC 9 amplifier combined with Patchmaster software (HEKA Electronics, Lambrecht/Pfalz, Germany). General settings, pipette and extracellular solutions were used as described above. Evoked action potentials (AP) were elicited by 10 ms current injections starting at 0 pA in 20 pA increments to determine electrophysiological parameters. Action potential (AP) firing was induced by depolarizing current pulses (200-950 pA at 150 pA intervals, 1000 ms duration). […] Number of APs before and after compound application were counted at the same current injection step.

The test system of experiment [2] is DNFB-induced persistent itch behavior of mice. Description: DNFB model of persistent itch (allergic contact dermatitis). It counts as in vivo. As to conditions: i.p. after the second DNFB exposure, vs vehicle. As to the method: Furthermore, the effect of Compound 6 in chronic itch was examined in a model of allergic contact dermatitis^31. In brief, the fur on the dorsolateral aspect of the neck was shaved under brief isoflurane anesthesia. Three to four days thereafter, the shaved skin area was painted with 100 μL of 0.15% 2,4-dinitrofluorobenzene (DNFB) in acetone/olive oil (3:1). After 10-11 days, the skin was shaved again and the DNFB solution was painted 3-4 days thereafter (i.e., two painting sessions 14 days apart). Ninety minutes after the second painting, mice were habituated for 15 min in separate plexiglass cylinders (30 cm diameter).
Compounds or vehicle (10% 2-hydroxypropyl-β-cyclodextrine in 0.9% saline) were i.p. administered, and 15 min thereafter spontaneous scratching was recorded over 30 min by videotaping (FIG. 10A).

A further experiment relates to Na+ channel. Description: SafetyScreen44 binding. On the set-up: species or system rat. As to conditions: 10 μM; substantial = higher than 50%.
Another experiment concerns the target muscarine M1 receptor (Homo sapiens, UniProt P11229). Kind of experiment: SafetyScreen44 binding. As to conditions: substantial = higher than 50%.
[3] abbreviates: injection of small currents (0-220 pA).

Sequence of muscarine M1 receptor (P11229 whole entry): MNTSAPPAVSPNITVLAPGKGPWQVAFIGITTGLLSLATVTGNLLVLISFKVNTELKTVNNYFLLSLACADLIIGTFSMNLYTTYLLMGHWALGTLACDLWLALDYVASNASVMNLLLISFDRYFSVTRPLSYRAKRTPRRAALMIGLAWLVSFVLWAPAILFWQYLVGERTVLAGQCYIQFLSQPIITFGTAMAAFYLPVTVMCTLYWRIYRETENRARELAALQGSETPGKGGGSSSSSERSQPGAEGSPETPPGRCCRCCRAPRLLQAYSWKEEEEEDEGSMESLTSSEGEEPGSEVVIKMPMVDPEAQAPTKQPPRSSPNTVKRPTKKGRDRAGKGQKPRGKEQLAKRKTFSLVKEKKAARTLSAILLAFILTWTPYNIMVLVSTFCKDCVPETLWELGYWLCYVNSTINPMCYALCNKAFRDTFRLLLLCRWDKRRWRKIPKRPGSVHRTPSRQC

Consider `O=C(O)COCCN1CCN(C2=Nc3ccccc3Oc3ccc(Cl)cc32)CC1` [Compound 6, 2-(2-(4-(2-Chlorodibenzo[b,f][1,4]oxazepin-11-yl)piperazin-1-yl)ethoxy) acetic acid], for which, in experiment [1], the “scratching evoked by s.c. histamine” value was “not affected”. Besides, the “number of AP fired” value in the experiment with IB4-binding DRG neurons (current injections 200-950 pA, inflammatory soup overnight) is on record as “profound decrease”. Further, in the experiment on IB4-binding DRG neurons (setting [3]), the AP amplitude result is “significantly lower” and the rheobase result was “significantly increased”. Besides, in experiment [2], the “number of head shakes, DNFB model” value is “significantly inhibited” and the “number of scratching bouts, DNFB model” value is on record as “significantly inhibited”.
Regarding `CN1CCN(C2=Nc3ccccc3Oc3ccc(Cl)cc32)CC1` [Loxapine, 2-chloro-11-(4-methylpiperazin-1-yl)dibenzo[b,f][1,4]oxazepine, reference compound], the “binding inhibition, Na+ channel” value in the experiment on Na+ channel is reported as “higher than 50%”. Further, on muscarine M1 receptor, the inhibition (usually the change of the read-out against control, counted positive when it falls) at 10 µM is > 50%.
